The test system of test [1] is lung epithelial cell line Mv1Lu. The experiment in a line: Cellular assay for TGF-beta receptor I kinase inhibitors: elimination of TGF-beta-mediated growth inhibition (example 13). It counts as cell-based. As to conditions: 48 h; Mv1Lu cells, 1 ng/ml TGF-beta, 0.5% FCS, two days, Crystal Violet staining; read-out: TβR activity (example 13). Here is the method:
Cellular Assay for Testing TGF-Beta Receptor I Kinase Inhibitors
As an example, the ability of the inhibitors to eliminate TGF-beta-mediated growth inhibition was tested. Cells of the lung epithelial cell line Mv1Lu were sown in a defined cell density in a 96-well microtiter plate and cultivated overnight under standard conditions. Next day, the medium was replaced by medium which comprises 0.5% of FCS and 1 ng/ml of TGF-beta, and the test substances were added in defined concentrations, generally in the form of dilution series with 5 fold steps. The concentration of the solvent DMSO was constant at 0.5%. After a further two days, Crystal Violet staining of the cells was carried out. After extraction of the Crystal Violet from the fixed cells, the absorption was measured spectrophotometrically at 550 nm. It could be used as a quantitative measure of the adherent cells present and thus of the cell proliferation during the culture.

The next test concerns the target T1, GST-ALK5 (Homo sapiens, UniProt P36897).
T1 sequence (P36897 34-503): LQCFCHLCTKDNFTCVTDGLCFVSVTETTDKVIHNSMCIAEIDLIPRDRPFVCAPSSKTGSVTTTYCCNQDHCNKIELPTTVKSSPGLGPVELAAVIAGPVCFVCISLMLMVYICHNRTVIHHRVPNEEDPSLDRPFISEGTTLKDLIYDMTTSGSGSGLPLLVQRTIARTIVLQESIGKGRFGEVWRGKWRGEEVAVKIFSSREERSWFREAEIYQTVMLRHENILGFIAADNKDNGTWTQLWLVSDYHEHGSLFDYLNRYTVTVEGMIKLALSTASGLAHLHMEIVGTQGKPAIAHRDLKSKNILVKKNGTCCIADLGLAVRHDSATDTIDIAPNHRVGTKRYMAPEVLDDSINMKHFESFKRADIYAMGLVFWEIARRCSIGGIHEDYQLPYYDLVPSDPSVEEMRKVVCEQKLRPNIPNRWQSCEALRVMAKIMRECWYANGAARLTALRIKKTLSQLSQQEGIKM
The experiment in a line: In-vitro (enzyme) kinase assay, 384-well flashplate (example 14). The format is biochemical. As to conditions: GST-ALK5, GST-SMAD2 substrate, 33P-ATP flashplate, 30° C. 45 min; IC50 classes; read-out: TβR activity (example 14). The method, then:
In-Vitro (Enzyme) Assay for Determination of the Efficacy of Inhibitors of the Inhibition of TGF-Beta-Mediated Effects
The kinase assay was carried out as 384-well flashplate assay. 31.2 nM of GST-ALK5, 439 nM of GST-SMAD2 and 3 mM of ATP (with 0.3 μCi of ^33P-ATP/well) were incubated in a total volume of 35 μl (20 mM of HEPES, 10 mM of MgCl2, 5 mM of MnCl2, 1 mM of DTT, 0.1% of BSA, pH 7.4) without or with test substance (5-10 concentrations) at 30° C. for 45 min. The reaction was stopped using 25 μl of 200 mM EDTA solution, filtered with suction at room temperature after 30 min, and the wells were washed with 3 times 100 μl of 0.9% NaCl solution. Radioactivity was measured in the TopCount. The IC50 values were calculated using RS1. Above and below, all temperatures were indicated in ° C.

Consider `NCCC(=O)Nc1cc(Nc2cc(-c3cc(Cl)ccc3F)nc3ncccc23)ncn1` [compound 94], for which the IC50 (in test [1]; on GST-ALK5) was less than 100 nM throughout.
`CN1CCC(NC(=O)c2cnccc2Nc2cc(-c3cc(Cl)ccc3F)nc3ncccc23)CC1` [compound 95]: the IC50 (in test [1]; at GST-ALK5) was less than 100 nM each time.
For the compound `Fc1ccccc1-c1cc(-n2ccc3cncnc32)c2cccnc2n1` [compound 96], the IC50 in test [1] is 1000 to 10000 nM; at GST-ALK5, 100 to 1000 nM.
Take `Fc1ccc(Cl)cc1-c1cc(Nc2ccnc(-c3cccnc3)n2)c2cccnc2n1` [compound 97]: the figures for the IC50 (in test [1]; on GST-ALK5) were more than 10000 nM and 1000 to 10000 nM, respectively.
On to `CC(=O)Nc1nccc(Nc2cc(-c3cc(Cl)ccc3F)nc3ncccc23)n1` [compound 98], for which the IC50 (in test [1]; on GST-ALK5) was less than 100 nM throughout.
Take `CC(C)NC(=O)c1cnccc1Nc1cc(-c2cc(Cl)ccc2F)nc2ncccc12` [compound 99]: the IC50 (in test [1]; on GST-ALK5) was less than 100 nM throughout.
With `Cc1nn(-c2cc(-c3cc(F)ccc3F)nc3ncccc23)c2ccncc12` [compound 100], the IC50 is 100 to 1000 nM in test [1] and less than 100 nM at GST-ALK5.
The like results for `CC(C)(C)C(=O)Nc1cc(Nc2cc(-c3cc(Cl)ccc3F)nc3ncccc23)ncn1` [compound 101] were, in that order, 1000 to 10000 nM and 100 to 1000 nM.
The matching figures for `O=C(CCN1CCNCC1)Nc1cc(Nc2cc(-c3cc(Cl)ccc3F)nc3ncccc23)ncn1` [compound 102]: more than 10000 nM and more than 10000 nM.
The like results for `Fc1ccc(F)c(-c2cc(Nc3cc(Cl)ncn3)c3cccnc3n2)c1` [compound 103] were, in that order, more than 10000 nM and 100 to 1000 nM.
On to `CC(C)(C)CC(=O)Nc1cc(Nc2cc(-c3cc(Cl)ccc3F)nc3ncccc23)ncn1` [compound 104], for which the IC50 (in test [1]; at GST-ALK5) was less than 100 nM each time.
On to `CC(C)(C)CC(=O)Nc1cc(Nc2cc(-c3cc(F)ccc3F)nc3ncccc23)ncn1` [compound 105], for which the IC50 in test [1] was 100 to 1000 nM; on GST-ALK5, less than 100 nM.
The like results for `Nc1cc(Nc2cc(-c3cc(F)ccc3F)nc3ncccc23)ncn1` [compound 106] were, in that order, 100 to 1000 nM and less than 100 nM.
Take `CC(C)(N)CC(=O)Nc1cc(Nc2cc(-c3cc(F)ccc3F)nc3ncccc23)ncn1` [compound 107]: the IC50 (in test [1]; on GST-ALK5) was less than 100 nM in each case.
For `COC(=O)c1nccc2c1ccn2-c1cc(-c2cc(Cl)ccc2F)nc2ncccc12` [compound 108], the IC50 in test [1] lay within 1000 to 10000 nM; at GST-ALK5 it was 100 to 1000 nM.
With `CC(C)(C)OC(=O)NCC(=O)Nc1cc(Nc2cc(-c3cc(Cl)ccc3F)nc3ncccc23)ncn1` [compound 109], the IC50 (in test [1]; on GST-ALK5) was less than 100 nM each time.
Regarding `NCC(=O)Nc1cc(Nc2cc(-c3cc(Cl)ccc3F)nc3ncccc23)ncn1` [compound 110], the IC50 (in test [1]; at GST-ALK5) was less than 100 nM each time.
For `CN1CCC(C(=O)Nc2cc(Nc3cc(-c4cc(Cl)ccc4F)nc4ncccc34)ncn2)CC1` [compound 111], the IC50 (in test [1]; on GST-ALK5) was less than 100 nM in each case.
As for `CN(C)CC(=O)Nc1cc(Nc2cc(-c3cc(Cl)ccc3F)nc3ncccc23)ncn1` [compound 112], the IC50 (in test [1]; on GST-ALK5) was less than 100 nM each time.
As for `CN1CCC(NC(=O)c2cnccc2Nc2cc(-c3cc(F)ccc3F)nc3ncccc23)CC1` [compound 113], the IC50 (in test [1]; on GST-ALK5) was less than 100 nM each time.
With `CC(C)(C)CC(=O)Nc1cc(Nc2cc(-c3ccccc3F)nc3ncccc23)ncn1` [compound 114], the IC50 was 100 to 1000 nM in test [1] and less than 100 nM at GST-ALK5.
The matching figures for `CN1CCC(C(=O)Nc2cc(Nc3cc(-c4ccccc4F)nc4ncccc34)ncn2)CC1` [compound 115]: 100 to 1000 nM and less than 100 nM.
The matching figures for `COC(=O)c1cc(Nc2cc(-c3cc(F)ccc3F)nc3ncccc23)ccn1` [compound 116]: more than 10000 nM and 1000 to 10000 nM.
The like results for `CN1CCC(C(=O)Nc2cc(Nc3cc(-c4cc(F)ccc4F)nc4ncccc34)ncn2)CC1` [compound 117] were, in that order, less than 100 nM and less than 100 nM.
For the compound `CNC(=O)c1cc(Nc2cc(-c3cc(F)ccc3F)nc3ncccc23)ccn1` [compound 118], the IC50 lay within 1000 to 10000 nM in test [1] and 100 to 1000 nM on GST-ALK5.
For `CN(C)CCNC(=O)c1cc(Nc2cc(-c3cc(F)ccc3F)nc3ncccc23)ccn1` [compound 119], the IC50 in test [1] was more than 10000 nM; at GST-ALK5, 1000 to 10000 nM.
The like results for `CN(C)CCNc1cc(Nc2cc(-c3cc(Cl)ccc3F)nc3ncccc23)ncn1` [compound 120] were, in that order, 100 to 1000 nM and 100 to 1000 nM.
The matching figures for `CN(C)c1cc(Nc2cc(-c3cc(Cl)ccc3F)nc3ncccc23)ncn1` [compound 121]: less than 100 nM and less than 100 nM.
The like results for `O=C(NCCN1CCCC1)c1cc(Nc2cc(-c3cc(F)ccc3F)nc3ncccc23)ccn1` [compound 122] were, in that order, more than 10000 nM and 1000 to 10000 nM.
Take `Cc1ccc(-c2cc(Nc3ccncc3)c3cccnc3n2)o1` [compound 123]: the IC50 (in test [1]; at GST-ALK5) was 100 to 1000 nM each time.
Regarding `Fc1ccc(Cl)cc1-c1cc(Nc2cc(NC3CCCCC3)ncn2)c2cccnc2n1` [compound 124], the results for the IC50 (in test [1]; on GST-ALK5) were more than 10000 nM and 1000 to 10000 nM, respectively.
The like results for `Fc1ccc(F)c(-c2cc(Nc3ccnc(Cl)c3)c3cccnc3n2)c1` [compound 125] were, in that order, 1000 to 10000 nM and less than 100 nM.
The matching figures for `CC(C)(C)CCNc1cc(Nc2cc(-c3cc(Cl)ccc3F)nc3ncccc23)ncn1` [compound 126]: 100 to 1000 nM and 100 to 1000 nM.
The like results for `CCN1CCC(Nc2cc(Nc3cc(-c4cc(Cl)ccc4F)nc4ncccc34)ncn2)CC1` [compound 127] were, in that order, 1000 to 10000 nM and 1000 to 10000 nM.
As to `CCOC(=O)c1cc(Nc2cc(-c3cc(F)ccc3F)nc3ncccc23)ccn1` [compound 128], the IC50 (in test [1]; at GST-ALK5) was more than 10000 nM in each case.
As to `Fc1ccc(F)c(-c2cc(-n3ccc4cnccc43)c3cccnc3n2)c1` [compound 129], the figures for the IC50 (in test [1]; at GST-ALK5) were 100 to 1000 nM and less than 100 nM, respectively.
In the case of `CCOC(=O)NCC(=O)Nc1cc(Nc2cc(-c3cc(Cl)ccc3F)nc3ncccc23)ncn1` [compound 130], the IC50 (in test [1]; at GST-ALK5) was less than 100 nM in each case.
As for `CC(C)(C)OC(=O)NCCCC(=O)Nc1cc(Nc2cc(-c3cc(Cl)ccc3F)nc3ncccc23)ncn1` [compound 131], the IC50 (in test [1]; at GST-ALK5) was less than 100 nM throughout.
For `CCN1CCN(C(=O)c2cnccc2Nc2cc(-c3cc(Cl)ccc3F)nc3ncccc23)CC1` [compound 132], the IC50 (in test [1]; on GST-ALK5) was 1000 to 10000 nM throughout.
Turning to `O=C(NCCN1CCCC1)c1cnccc1Nc1cc(-c2cc(Cl)ccc2F)nc2ncccc12` [compound 133], the IC50 (in test [1]; at GST-ALK5) was less than 100 nM throughout.
Turning to `CC(C)(C)OC(=O)NC(C)(C)C(=O)Nc1cc(Nc2cc(-c3cc(Cl)ccc3F)nc3ncccc23)ncn1` [compound 134], the IC50 (in test [1]; on GST-ALK5) was more than 10000 nM each time.
As for `NCCCC(=O)Nc1cc(Nc2cc(-c3cc(Cl)ccc3F)nc3ncccc23)ncn1` [compound 135], the IC50 in test [1] was 100 to 1000 nM; on GST-ALK5 it was less than 100 nM.
Turning to `CC(C)(N)C(=O)Nc1cc(Nc2cc(-c3cc(Cl)ccc3F)nc3ncccc23)ncn1` [compound 136], the IC50 (in test [1]; on GST-ALK5) was 100 to 1000 nM each time.
`CN(C)c1cc(Nc2cc(-c3cc(F)ccc3F)nc3ncccc23)ncn1` [compound 137]: the IC50 (in test [1]; at GST-ALK5) was more than 10000 nM in each case.
`COCCNc1cc(Nc2cc(-c3cc(F)ccc3F)nc3ncccc23)ncn1` [compound 138]: the IC50 (in test [1]; on GST-ALK5) was 100 to 1000 nM throughout.
Turning to `O=[N+]([O-])c1cn(-c2cc(-c3cc(Cl)ccc3F)nc3ncccc23)c2ccncc12` [compound 139], the values for the IC50 (in test [1]; on GST-ALK5) were 1000 to 10000 nM and less than 100 nM, respectively.

For the origin of these results see patent US8815893B2, “Hetarylaminonaphthyridines” (Merck Patent GmbH, priority 2010, dated 2014).
